Results reported in US12318477B2, “Injectable and inhalable formulations” (CYBIN UK LTD, priority 2021, dated 2025).

Columns and labels:
[1] = pH-solubility in 0.5M Britton Robinson buffer at 25° C.; type: physicochemical; details: aqueous buffer, thermodynamic from solid, pH between about 4 and about 6
Method: Prior to adding N,N-dimethyltryptamine, a quantity of NaOH was added to the BR buffer as required to ensure the required pH. The total volume of BR buffer plus required amount of NaOH was 5 ml for each pH tested (pH 4, 5, 6, 7, 8, 9 & 10).

[2] = according to the Human Metabolome Database (HMDB); cited from earlier work
[3] = In vivo pharmacokinetic (PK) profile following intramuscular (IM) dosing in rats; details: rat; for plasma levels at 30 mins compared with undeuterated DMT: […] (as fumarate) IM dose; for Cmax compared with DMT (SPL026): following IM dosing, p=0.005

Structure (SMILES)	solubility [1] [mg/mL]	stability in solution [2]	increase in AUC0-inf at 10 mg/kg dose compared to […] dose level ([3]; IM) [%]	plasma levels at 30 mins compared with undeuterated DMT [3]	Cmax compared with DMT (SPL026) [3]
CN(C)CCc1c[nH]c2ccccc12 [N,N-Dimethyltryptamine, N,N-dimethyltryptamine]	≥ 90	degrades relatively quickly in solution			
O=C(O)/C=C/C(=O)O.[2H]C([2H])(Cc1c[nH]c2ccccc12)N(C)C [SPL028i, α,α,-bis-deuterium-N,N-dimethyltryptamine fumarate salt]			237	significantly higher plasma levels	significantly higher
O=C(O)/C=C/C(=O)O.[2H]C([2H])([2H])N(C([2H])([2H])[2H])C([2H])([2H])Cc1c[nH]c2ccccc12 [SPL028viii, α,α,bis-deuterio-N,N-hexadeuterio-dimethyltryptamine fumarate salt]				significantly higher plasma levels	significantly higher
